Measurements: US20080287517A1, “Pyrazole Derivatives as Cb1 Modulators” (priority 2005, published 2008)
pIC50: −log10 of the molar value.

Target: T1, CB1 receptor (Homo sapiens, UniProt P21554)
T1 construct: expressed in transfected cells
Experiment: [35S]-GTPγS binding assay on membranes from cells stably transfected with the CB1 gene, inhibition of CP55940 (EC80) stimulated binding
Format: biochemical
Conditions: concentration giving half maximal inhibition of GTPγS binding; EC80 of agonist CP55940
Protocol: 10 μg of membranes prepared from cells stably transfected with the CB1 gene were suspended in 200 μl of 100 mM NaCl, 5 mM MgCl2, 1 mM EDTA, 50 mM HEPES (pH 7.4), 1 mM DTT, 0.1% BSA and 100 μM GDP. To this was added an EC80 concentration of agonist (CP55940), the required concentration of test compound and 0.1 μCi [^35S]-GTPγS. The reaction was allowed to proceed at 30° C. for 45 min. Samples were then transferred on to GF/B filters using a cell harvester and washed with wash buffer (50 mM Tris (pH 7.4), 5 mM MgCl2, […]). Filters were then covered with scintillant and counted for the amount of [^35S]-GTPγS retained by the filter.
Activity is measured in the absence of all ligands (minimum activity) or in the presence of an EC80 concentration of CP55940 (maximum activity). These activities are set as 0% and 100% activity respectively. At various concentrations of novel ligand, activity is calculated as a percentage of the maximum activity and plotted. The data are fitted using the equation y=A+((B−A)/1+((C/x)UD)) and the IC50 value determined as the concentration required to give half maximal inhibition of GTPγS binding under the conditions used.

T1 sequence (P21554 whole entry): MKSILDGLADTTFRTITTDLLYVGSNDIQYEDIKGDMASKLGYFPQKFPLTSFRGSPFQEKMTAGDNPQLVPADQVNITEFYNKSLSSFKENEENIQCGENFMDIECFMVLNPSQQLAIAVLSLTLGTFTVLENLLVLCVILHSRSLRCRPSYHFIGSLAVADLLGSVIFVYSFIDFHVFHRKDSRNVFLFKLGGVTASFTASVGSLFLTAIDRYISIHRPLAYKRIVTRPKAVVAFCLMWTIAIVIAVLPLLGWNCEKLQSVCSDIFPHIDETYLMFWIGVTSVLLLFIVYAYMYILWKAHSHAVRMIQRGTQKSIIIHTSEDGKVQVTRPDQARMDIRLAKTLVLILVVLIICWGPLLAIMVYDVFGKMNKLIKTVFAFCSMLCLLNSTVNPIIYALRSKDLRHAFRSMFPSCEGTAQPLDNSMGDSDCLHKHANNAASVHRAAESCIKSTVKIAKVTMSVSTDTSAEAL

pIC50: 8.71
SMILES: Cc1ccc(NC(=O)c2nn(-c3ccc(Cl)cc3Cl)c(-c3ccc(OS(=O)(=O)CCC(F)(F)F)cc3)c2C)nc1 [Example 10, 3,3,3-Trifluoro-propane-1-sulfonic acid 4-[2-(2,4-dichlorophenyl)-4-methyl-5-(5-methyl-pyridin-2-ylcarbamoyl)-2H-pyrazol-3-yl]phenyl ester]
